This passage reports IC50 results from ChEMBL document CHEMBL3639022, “Azolopyridin-3-one derivatives as inhibitors of lipases and phospholipases” (2015).

The experiment addresses T1, Endothelial lipase (Homo sapiens, UniProt Q9Y5X9).
T1 sequence (Q9Y5X9 whole entry): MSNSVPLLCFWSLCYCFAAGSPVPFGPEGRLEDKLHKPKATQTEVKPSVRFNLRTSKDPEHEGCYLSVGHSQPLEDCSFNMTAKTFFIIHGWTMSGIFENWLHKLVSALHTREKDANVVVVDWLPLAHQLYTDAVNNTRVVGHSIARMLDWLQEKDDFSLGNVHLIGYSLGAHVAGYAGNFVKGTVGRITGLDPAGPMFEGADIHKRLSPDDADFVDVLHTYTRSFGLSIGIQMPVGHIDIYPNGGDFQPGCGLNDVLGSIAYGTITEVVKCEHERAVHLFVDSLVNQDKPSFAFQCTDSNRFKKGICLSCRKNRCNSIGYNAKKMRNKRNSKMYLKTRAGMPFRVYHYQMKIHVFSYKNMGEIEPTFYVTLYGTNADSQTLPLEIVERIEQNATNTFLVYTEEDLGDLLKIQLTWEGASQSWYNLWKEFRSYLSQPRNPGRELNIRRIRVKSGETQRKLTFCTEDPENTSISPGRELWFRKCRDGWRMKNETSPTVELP
The experiment in a line: Enzyme Assay: For characterization of the enzymatic activity of endothelial lipase and the effect of inhibitors, the phospholipase-specific substrate 1,2-bis(4,4-difluoro-5,7-dimethyl-4-bora-3a,4a-diaza-s-indacene-3-undecanoyl)-sn-glycero-3-phosphocholine (manufacturer: Molecular Probes) was used. Hydrolysis of the A1 ester bond of this phospholipid by the enzyme releases the fluorescent dye Bodipy, which can be detected by measuring the fluorescence after separation by thin-layer chromatography on an HPTLC plate (silica gel 60, Merck) or directly in the reaction vessel. To prepare the substrate solution, 100 ug of 1,2-bis(4,4-difluoro-5,7-dimethyl-4-bora-3a,4a-diaza-s-indacene-3-undecanoyl)-sn-glycero-3-phosphocholine (manufacturer: Molecular Probes) were dissolved in 100 ul of DMSO and taken up in 2.4 mg of tripalmitin (Sigma) in 393 ul of chloroform which contained 20 mg/ml DOPcholine (1,2-dioleoyl-sn-glycero-3-phosphocholine).

Take `O=C(NCc1ccccc1OC(F)F)n1sc2ncccc2c1=O`: the IC50 was determined as 138 nM.

As usually defined, the IC50 is the midpoint of a concentration-inhibition curve. High values mean weaker potency, low ones greater potency.
